Measured values from US9023851B2 (Merck Patent GmbH, priority 2010, dated 2015).

Assays:
ZAP-70 = molecular target: T1, ZAP-70 (Homo sapiens, UniProt P43403); assay: Zap70 enzymatic assay (Caliper LifeSciences technology); assay type: biochemical
T1 construct: purchased BPS Bioscience, CA, USA
T1 sequence (P43403 1-619): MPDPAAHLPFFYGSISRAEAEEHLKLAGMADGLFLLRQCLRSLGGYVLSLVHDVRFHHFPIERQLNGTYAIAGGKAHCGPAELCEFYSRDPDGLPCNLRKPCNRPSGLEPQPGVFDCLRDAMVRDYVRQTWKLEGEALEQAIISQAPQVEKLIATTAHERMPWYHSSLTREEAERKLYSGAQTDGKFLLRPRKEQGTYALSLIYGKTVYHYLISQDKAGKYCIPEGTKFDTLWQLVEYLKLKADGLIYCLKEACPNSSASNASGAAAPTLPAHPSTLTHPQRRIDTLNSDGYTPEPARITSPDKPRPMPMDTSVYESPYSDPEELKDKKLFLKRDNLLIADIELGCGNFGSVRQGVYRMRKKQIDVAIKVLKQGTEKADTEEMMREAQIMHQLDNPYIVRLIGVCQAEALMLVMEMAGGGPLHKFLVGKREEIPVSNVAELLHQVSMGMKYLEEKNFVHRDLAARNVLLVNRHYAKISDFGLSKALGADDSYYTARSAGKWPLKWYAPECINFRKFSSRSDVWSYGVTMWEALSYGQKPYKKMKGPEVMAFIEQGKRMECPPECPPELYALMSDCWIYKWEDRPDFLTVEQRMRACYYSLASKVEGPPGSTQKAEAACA
Summary of the method: (§1)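 Off-chip mobility-shift assay quantifying conversion of a fluorescent peptide substrate to phosphorylated product. Reactions in 100 mM HEPES pH 7.5, 1 mM DTT, 1 mM MgCl2, 0.015% Brij-35, 90 min at 25 C, stopped with EDTA. IC50 from sigmoidal fit of percent conversion versus inhibitor concentration.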

Syk = molecular target: T2, Syk (Homo sapiens, UniProt P43405); assay: Syk enzyme assay (flash plate / Caliper mobility shift); assay type: biochemical
T2 construct: purchased BPS Bioscience, CA, USA
Summary of the method: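 Flashplate format used 2.5 nM SYK, 400 nM biotinylated peptide and 10 µM ATP with 33P tracer, pH 7.5, 1 h at 30 °C, read by radioactivity. Caliper format ran 90 min at 25 °C in HEPES pH 7.5, reading percent peptide conversion by mobility shift. IC50s came from dose-response curves.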

Src = molecular target: T3, Src (Homo sapiens, UniProt P12931); assay: cSrc enzymatic assay (Caliper LifeSciences technology); assay type: biochemical
T3 construct: purchased Carna Bioscience, Kobe, Japan
Experimental: Enzymatic Assays Using the Caliper LifeSciences Technology
The assays described here are performed on the Caliper Life Sciences LC3000 system This technology provides data on enzyme activity via measurement of the relative amounts of phosphorylated or unphosphorylated fluorescently labelled substrate peptide at the end of an enzymatic reaction. These different states of peptide are resolved by applying a potential difference across the sample. The presence of the charged phosphate group on the product (as opposed to the substrate) causes a different peptide mobility between the two peptides. This is visualized by excitation of the fluorescent label on the substrate and product peptides and represented as peaks within the analysis software.
In order to measure inhibitor activity of kinase inhibitors on this technology, a TTP Mosquito liquid handling instrument is used to place 0.25 ul of the appropriate concentration of inhibitor in 100% DMSO (for a dose response curve calculation) into each well of a 384-well plate. To this reaction components are added to a final volume of 25 ul. The table below indicates the sequences and concentrations for the assays described in this report. Standard components are 1 mM DTT (Sigma, D0632), 1 mM MgCl2 (Sigma, M1028), 100 mM HEPES pH 7.5 (Calbiochem, 391338), 0.015% Brij-35 (Sigma, B4184).
The reaction is incubated for 90 min at 25 C, and then stopped by the addition of 70 ul of Stop buffer (100 mM HEPES pH 7.5, 0.015% Brij-35, 10 mM EDTA (Sigma, E7889)).
The plate is read on a Caliper LC 3000 in an Off-Chip mobility shift assay format, on a 12-sipper chip. Unphosphorylated substrate and phosphorylated product peptide resolve as separate peaks allowing direct measurement of percentage of conversion of substrate to product. The percent conversion can be plotted against concentration of inhibitor to produce a sigmoidal dose response curve, from which an IC50 can be calculated using GeneData Condoseo or a similar product. Cellular activity assays

Ramos cells = assay: BCR crosslinking-induced BLNK phosphorylation (BLNK cell assay); assay type: cell-based; conditions: Homo sapiens
Experimental: 1. BCR Crosslinking-Induced BLNK Phosphorylation
Ramos cells incubated overnight in IMDM medium containing 5% FCS were resuspended in IMDM medium without serum (3.3×10^6 cells/ml). 90 μl of cell suspension (300′000 cells) were incubated with 10 μl of SYK inhibitors (in 3% DMSO) for 20 minutes at 37° C., in 96 well plates. After preincubation with inhibitors, cells were activated with 10 μg/ml of goat antihuman anti-IgM for 10 minutes at 37° C. After stimulation, cells were fixed by addition of 80 μl of 4% paraformaldehyde followed by a 10 minutes incubation at RT and […] in 0.1% Triton X-100 in PBS. BLNK phosphorylation was detected by flow cytometry after staining of the cells with anti-BLNK-pY84-PE antibodies from BD pharmingen, for 45 minutes at RT. […]

KDR = molecular target: T4, KDR (Homo sapiens, UniProt P35968); assay: KDR enzymatic assay (Caliper LifeSciences technology); assay type: biochemical
T4 construct: purchased BPS Bioscience, CA, USA
Summary of the method: as §1

T4 sequence (P35968 20-1356): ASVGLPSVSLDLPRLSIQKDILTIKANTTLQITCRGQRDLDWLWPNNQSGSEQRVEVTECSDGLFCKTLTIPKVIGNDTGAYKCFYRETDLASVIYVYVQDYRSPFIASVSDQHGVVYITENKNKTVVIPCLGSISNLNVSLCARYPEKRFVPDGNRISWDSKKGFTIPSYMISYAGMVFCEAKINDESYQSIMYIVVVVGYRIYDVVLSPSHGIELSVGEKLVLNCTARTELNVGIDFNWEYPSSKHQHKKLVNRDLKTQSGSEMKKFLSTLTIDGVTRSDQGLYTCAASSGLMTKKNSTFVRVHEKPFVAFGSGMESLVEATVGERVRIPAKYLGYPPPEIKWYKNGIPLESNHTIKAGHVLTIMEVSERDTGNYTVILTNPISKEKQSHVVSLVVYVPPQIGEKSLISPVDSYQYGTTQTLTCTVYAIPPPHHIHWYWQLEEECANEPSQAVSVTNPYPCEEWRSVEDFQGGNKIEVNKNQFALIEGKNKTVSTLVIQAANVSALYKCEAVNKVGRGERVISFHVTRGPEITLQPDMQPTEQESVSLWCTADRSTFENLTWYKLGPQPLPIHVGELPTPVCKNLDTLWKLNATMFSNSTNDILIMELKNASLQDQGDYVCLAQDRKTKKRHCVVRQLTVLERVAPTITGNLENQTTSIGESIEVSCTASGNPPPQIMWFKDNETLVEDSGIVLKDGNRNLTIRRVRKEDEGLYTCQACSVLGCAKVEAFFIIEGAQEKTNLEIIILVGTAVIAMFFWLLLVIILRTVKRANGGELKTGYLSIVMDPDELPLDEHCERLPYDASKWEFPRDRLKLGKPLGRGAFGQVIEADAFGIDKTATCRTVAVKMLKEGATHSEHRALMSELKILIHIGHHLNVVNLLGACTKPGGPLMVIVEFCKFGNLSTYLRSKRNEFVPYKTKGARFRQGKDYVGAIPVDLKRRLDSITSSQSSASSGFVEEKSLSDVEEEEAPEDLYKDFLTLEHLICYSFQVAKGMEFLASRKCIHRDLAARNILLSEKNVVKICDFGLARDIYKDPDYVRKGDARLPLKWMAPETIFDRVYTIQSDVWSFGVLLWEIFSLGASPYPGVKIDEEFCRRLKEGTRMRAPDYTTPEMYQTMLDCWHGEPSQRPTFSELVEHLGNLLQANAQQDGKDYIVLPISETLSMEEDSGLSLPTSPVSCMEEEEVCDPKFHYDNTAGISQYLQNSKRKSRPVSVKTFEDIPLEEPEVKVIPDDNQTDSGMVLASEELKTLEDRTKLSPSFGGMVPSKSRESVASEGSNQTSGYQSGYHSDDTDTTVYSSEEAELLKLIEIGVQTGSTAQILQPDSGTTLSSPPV
T3 sequence (P12931 whole entry): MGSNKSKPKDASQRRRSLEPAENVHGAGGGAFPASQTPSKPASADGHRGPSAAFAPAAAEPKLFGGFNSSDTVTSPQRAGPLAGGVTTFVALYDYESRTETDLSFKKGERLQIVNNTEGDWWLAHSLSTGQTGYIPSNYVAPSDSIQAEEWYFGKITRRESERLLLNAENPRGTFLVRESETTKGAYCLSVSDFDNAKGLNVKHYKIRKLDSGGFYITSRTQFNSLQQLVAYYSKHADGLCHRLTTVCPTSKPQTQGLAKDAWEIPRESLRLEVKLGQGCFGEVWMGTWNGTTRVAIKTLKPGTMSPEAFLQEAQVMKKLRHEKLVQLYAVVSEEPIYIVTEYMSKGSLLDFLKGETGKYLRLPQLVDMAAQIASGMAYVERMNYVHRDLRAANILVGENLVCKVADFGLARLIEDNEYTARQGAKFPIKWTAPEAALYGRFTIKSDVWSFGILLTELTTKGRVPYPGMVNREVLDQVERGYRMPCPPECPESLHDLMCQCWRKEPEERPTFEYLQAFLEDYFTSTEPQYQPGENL

Row | SMILES | IC50 (ZAP-70) [µM] | IC50 (Syk) [µM] | IC50 (Src) [µM] | IC50 (Ramos cells) [µM] | IC50 (KDR) [µM]
1 | CN1CCN(c2ccc(Nc3nc4c(-c5ccc6c(cnn6C)c5)nccn4n3)cc2)CC1 [Example D15, [8-(1-Methyl-1H-indazol-5-yl)-[1,2,4]triazolo[1,5-a]pyrazin-2-yl]-[4-(4-methyl-piperazin-1-yl)-phenyl]-amine] | 3 to 50 | < 0.3 | 0.3 to 3 | 3 to 50 | 0.3 to 3
2 | c1cc(-c2nccn3nc(Nc4ccc(N5CCOCC5)cc4)nc23)c2cc[nH]c2c1 [Example D10, [8-(1H-Indol-4-yl)-[1,2,4]triazolo[1,5-a]pyrazin-2-yl]-(4-morpholin-4-yl-phenyl)-amine] | 3 to 50 | < 0.3 | < 0.3 | 3 to 50 | < 0.3
3 | COc1cc(Nc2nc3c(-c4ccccc4-c4ccccc4)nccn3n2)cc(OC)c1 [Example C284, (8-Biphenyl-2-yl-[1,2,4]triazolo[1,5-a]pyrazin-2-yl)-(3,5-dimethoxy-phenyl)-amine] |  | < 0.3 |  | 3 to 50 | 
4 | Cc1cc(C)cc(Nc2nc3c(NCCCN4CCN(C)CC4)nccn3n2)c1 [Example C36, N^2-(3,5-Dimethyl-phenyl)-N^8-[3-(4-methyl-piperazin-1-yl)-propyl]-[1,2,4]triazolo[1,5-a]pyrazine-2,8-diamine] | 3 to 50 | 3 to 50 | 3 to 50 |  | 3 to 50
5 | FC(F)(F)c1cccc(Nc2nc3c(NCCCN4CCOCC4)nccn3n2)c1 [Example C42, N^8-(3-Morpholin-4-yl-propyl)-N^2-(3-trifluoromethyl-phenyl)-[1,2,4]triazolo[1,5-a]pyrazine-2,8-diamine] | 0.3 to 3 | 3 to 50 | 3 to 50 |  | 3 to 50
6 | NCc1cccc(-c2nccn3nc(Nc4ccc(N5CCOCC5)cc4)nc23)c1 [Example C253, [8-(3-Aminomethyl-phenyl)-[1,2,4]triazolo[1,5-a]pyrazin-2-yl]-(4-morpholin-4-yl-phenyl)-amine] |  | < 0.3 | 0.3 to 3 | 3 to 50 | < 0.3
7 | Cn1ncc2cc(-c3nccn4nc(Nc5ccc(N6CCOCC6)cc5)nc34)ccc21 [Example D2, [8-(1-Methyl-1H-indazol-5-yl)-[1,2,4]triazolo[1,5-a]pyrazin-2-yl]-(4-morpholin-4-yl-phenyl)-amine] | 3 to 50 | < 0.3 | 0.3 to 3 |  | < 0.3
8 | COc1cc(Nc2nc3c(-c4cccc5[nH]ncc45)nccn3n2)cc(OC)c1 [Example C303, (3,5-Dimethoxy-phenyl)-[8-(1H-indazol-4-yl)-[1,2,4]triazolo[1,5-a]pyrazin-2-yl]-amine] | < 0.3 | < 0.3 | < 0.3 |  | 0.3 to 3
9 | Oc1cccc(-c2nccn3nc(Nc4ccc(N5CCOCC5)cc4)nc23)c1 [Example C269, 3-[2-(4-Morpholin-4-yl-phenylamino)-[1,2,4]triazolo[1,5-a]pyrazin-8-yl]-phenol] | 0.3 to 3 | < 0.3 | 0.3 to 3 |  | < 0.3

Next, values leading:

Row | IC50 (ZAP-70) [µM] | IC50 (Syk) [µM] | IC50 (Src) [µM] | IC50 (Ramos cells) [µM] | IC50 (KDR) [µM] | SMILES
10 | 0.3 to 3 | < 0.3 | 0.3 to 3 | 3 to 50 | < 0.3 | c1cnc2cc(-c3nccn4nc(Nc5ccc(N6CCOCC6)cc5)nc34)ccc2c1 [Example C265, (4-Morpholin-4-yl-phenyl)-(8-quinolin-7-yl-[1,2,4]triazolo[1,5-a]pyrazin-2-yl)-amine]
11 |  | < 0.3 | 0.3 to 3 | 3 to 50 | 0.3 to 3 | Cc1nc2cc(Nc3nc4c(-c5cnn(C)c5)nccn4n3)ccc2[nH]1 [Example D1, (2-Methyl-1H-benzoimidazol-5-yl)-[8-(1-methyl-1H-pyrazol-4-yl)-[1,2,4]triazolo[1,5-a]pyrazin-2-yl]-amine]
12 | 3 to 50 | 3 to 50 | 3 to 50 |  | 3 to 50 | Cc1cc(C)cc(Nc2nc3c(NCCCN(C)C)nccn3n2)c1 [Example C35, N^8-(3-Dimethylamino-propyl)-N^2-(3,5-dimethyl-phenyl)-[1,2,4]triazolo[1,5-a]pyrazine-2,8-diamine]
13 | 3 to 50 | 0.3 to 3 | 3 to 50 |  | 0.3 to 3 | Cc1cccc(Nc2nc3c(-c4ccc(N5CCOCC5)cc4)nccn3n2)c1 [Example C13, [8-(4-Morpholin-4-yl-phenyl)-[1,2,4]triazolo[1,5-a]pyrazin-2-yl]-m-tolyl-amine]
14 | 3 to 50 | < 0.3 | 0.3 to 3 |  | < 0.3 | CN(C)c1ccc(-c2nccn3nc(Nc4ccc(N5CCOCC5)cc4)nc23)cn1 [Example D3, [8-(6-Dimethylamino-pyridin-3-yl)-[1,2,4]triazolo[1,5-a]pyrazin-2-yl]-(4-morpholin-4-yl-phenyl)-amine]
15 | 0.3 to 3 | 3 to 50 | 3 to 50 |  | 3 to 50 | Cc1cccc(Nc2nc3c(NCCCN4CCN(C)CC4)nccn3n2)c1 [Example C48, N^8-[3-(4-Methyl-piperazin-1-yl)-propyl]-N^2-m-tolyl-[1,2,4]triazolo[1,5-a]pyrazine-2,8-diamine]
16 | 3 to 50 | 0.3 to 3 | 0.3 to 3 |  | 0.3 to 3 | COCC(O)Cn1cc(-c2nccn3nc(Nc4ccc(N5CCOCC5)cc4)nc23)cn1 (centres unmarked) [Example D6, 1-Methoxy-3-{4-[2-(4-morpholin-4-yl-phenylamino)-[1,2,4]triazolo[1,5-a]pyrazin-8-yl]-pyrazol-1-yl}-propan-2-ol]
17 | 3 to 50 | 3 to 50 | 3 to 50 |  | 3 to 50 | Cc1cccc(Nc2nc3c(NCCCN4CCOCC4)nccn3n2)c1 [Example C47, N^8-(3-Morpholin-4-yl-propyl)-N^2-m-tolyl-[1,2,4]triazolo[1,5-a]pyrazine-2,8-diamine]
18 | 3 to 50 | 3 to 50 | 3 to 50 |  | 3 to 50 | Cc1cc(C)cc(Nc2nc3c(NCCN)nccn3n2)c1 [Example C34, N^8-(2-Amino-ethyl)-N^2-(3,5-dimethyl-phenyl)-[1,2,4]triazolo[1,5-a]pyrazine-2,8-diamine]
19 | 3 to 50 | 0.3 to 3 | 3 to 50 |  | 0.3 to 3 | Cn1ccnc1Sc1ccc(Nc2nc3c(-c4ccccc4)nccn3n2)cc1Cl [Example C23, [3-Chloro-4-(1-methyl-1H-imidazol-2-ylsulfanyl)-phenyl]-(8-phenyl-[1,2,4]triazolo[1,5-a]pyrazin-2-yl)-amine]
